The record followed here is patent publication US20110065629A1, “ENTERAL NUTRIENT” (AMINO UP CHEMICAL CO., LTD., priority 2008, published 2011).

In this assay the test system is Dendritic cells separated from the bone marrow and spleen. Description: External appearance of dendritic cells in plastic dishes with or without LPS. It is filed as cell-based, normal mice. As to conditions: AHCC 5 mg/ml, β-glucan 1 mg/ml. The protocol:
Dendritic cells separated from the bone marrow and spleen of normal mice were placed in plastic dishes to measure the external appearances of dendritic cells in the case of adding only LPS so as to achieve a final concentration of 5 μg/ml and in the case of adding LPS and AHCC (final concentration: 5 mg/ml) or β-glucan (final concentration: 1 mg/ml).

Consider β-glucan, for which the Cell morphology entry reads like this: (LPS stimulation (5 μg/ml)) “Deformation”; (Normal condition) “Spherical”.
